Test results taken from patent publication US20250215012A1, “IKZF2 DEGRADERS AND USES THEREOF” (REGENTS OF THE UNIVERSITY OF MICHIGAN, priority 2022, published 2025).

Biological target: IKZF2 (Homo sapiens (Human), UniProt Q96SW2+Q9UKS7)
Assay: IKZF2 HiBiT Assay (Jurkat-IKZF2-HiBiT cell line)
Type: cell-based
Details: Jurkat-IKZF2-HiBiT cells, 24 hours; for DC50: read-out: HiBit assay degradation analysis DC50; for Dmax: read-out: HiBit assay degradation analysis Dmax
Summary of the method: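 Jurkat cells carrying HiBiT-tagged IKZF2 were exposed to serially diluted compound for 24 h at 37 °C. Remaining IKZF2 was measured by Nano-Glo HiBiT lytic luminescence after 10-20 min at room temperature. Signal was normalized to DMSO, and IC50 came from a four-parameter variable-slope fit.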

Sequence of IKZF2 (Q9UKS7 whole entry): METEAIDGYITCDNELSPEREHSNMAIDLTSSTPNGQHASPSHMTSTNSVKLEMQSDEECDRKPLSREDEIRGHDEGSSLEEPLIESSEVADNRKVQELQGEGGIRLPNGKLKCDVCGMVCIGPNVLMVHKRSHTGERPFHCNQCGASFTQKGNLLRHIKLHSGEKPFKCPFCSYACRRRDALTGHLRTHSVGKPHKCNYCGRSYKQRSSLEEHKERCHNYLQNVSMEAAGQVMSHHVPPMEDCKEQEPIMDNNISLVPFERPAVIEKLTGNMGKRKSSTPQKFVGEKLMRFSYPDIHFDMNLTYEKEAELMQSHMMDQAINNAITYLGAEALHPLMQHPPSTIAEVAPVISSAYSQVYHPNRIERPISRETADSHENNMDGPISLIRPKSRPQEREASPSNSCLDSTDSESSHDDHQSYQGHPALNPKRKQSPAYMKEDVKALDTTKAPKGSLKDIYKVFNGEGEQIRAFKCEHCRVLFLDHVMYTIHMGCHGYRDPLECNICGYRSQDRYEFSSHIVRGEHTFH
Sequence of IKZF2 (Q96SW2 whole entry): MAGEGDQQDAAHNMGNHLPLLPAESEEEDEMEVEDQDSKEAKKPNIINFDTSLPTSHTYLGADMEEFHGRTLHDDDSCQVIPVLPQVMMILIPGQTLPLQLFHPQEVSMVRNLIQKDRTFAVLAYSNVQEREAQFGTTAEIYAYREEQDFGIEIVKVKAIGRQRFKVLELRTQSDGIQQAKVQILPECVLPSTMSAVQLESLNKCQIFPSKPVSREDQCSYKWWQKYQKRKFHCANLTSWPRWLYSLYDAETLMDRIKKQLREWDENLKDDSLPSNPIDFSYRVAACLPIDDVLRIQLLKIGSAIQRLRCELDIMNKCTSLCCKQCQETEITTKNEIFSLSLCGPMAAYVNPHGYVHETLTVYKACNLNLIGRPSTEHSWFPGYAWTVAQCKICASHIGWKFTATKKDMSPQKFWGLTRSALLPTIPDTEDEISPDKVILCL
Sequence of IKZF2 (Q16531 whole entry partner): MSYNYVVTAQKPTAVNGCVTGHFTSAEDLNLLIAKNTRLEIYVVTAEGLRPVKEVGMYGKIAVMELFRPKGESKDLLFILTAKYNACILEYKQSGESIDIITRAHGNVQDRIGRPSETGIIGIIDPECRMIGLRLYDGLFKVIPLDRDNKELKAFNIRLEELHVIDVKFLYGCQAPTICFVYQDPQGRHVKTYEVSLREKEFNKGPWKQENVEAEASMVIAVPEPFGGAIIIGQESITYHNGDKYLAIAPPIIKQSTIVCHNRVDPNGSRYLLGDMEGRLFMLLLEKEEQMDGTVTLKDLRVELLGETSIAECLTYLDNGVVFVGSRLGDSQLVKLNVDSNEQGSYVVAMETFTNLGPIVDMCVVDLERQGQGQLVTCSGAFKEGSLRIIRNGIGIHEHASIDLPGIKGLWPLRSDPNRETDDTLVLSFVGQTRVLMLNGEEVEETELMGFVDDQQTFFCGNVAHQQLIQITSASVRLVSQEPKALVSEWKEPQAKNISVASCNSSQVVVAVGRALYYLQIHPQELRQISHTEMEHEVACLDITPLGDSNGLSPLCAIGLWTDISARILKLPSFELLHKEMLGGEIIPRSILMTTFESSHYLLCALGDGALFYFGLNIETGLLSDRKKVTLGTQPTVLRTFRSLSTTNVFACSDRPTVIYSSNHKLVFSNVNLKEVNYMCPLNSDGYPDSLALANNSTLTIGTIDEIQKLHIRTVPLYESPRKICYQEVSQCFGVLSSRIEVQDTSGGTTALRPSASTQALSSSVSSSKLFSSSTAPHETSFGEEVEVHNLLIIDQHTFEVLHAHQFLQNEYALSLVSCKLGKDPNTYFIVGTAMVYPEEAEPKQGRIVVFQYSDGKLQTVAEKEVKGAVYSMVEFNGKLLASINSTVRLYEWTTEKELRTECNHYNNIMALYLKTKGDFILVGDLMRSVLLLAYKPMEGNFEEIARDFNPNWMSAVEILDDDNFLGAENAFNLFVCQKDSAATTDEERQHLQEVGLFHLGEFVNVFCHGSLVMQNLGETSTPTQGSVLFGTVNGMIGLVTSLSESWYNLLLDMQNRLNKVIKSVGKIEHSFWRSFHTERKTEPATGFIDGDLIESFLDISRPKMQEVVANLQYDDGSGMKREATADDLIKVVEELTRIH

Row | SMILES | DC50 | Dmax
1 | CC(C)(O)c1ccc(CN2CCC3(CC2)COc2c3ccc3c2CN(C2CCC(=O)NC2=O)C3=O)cc1 (stereo not drawn) [Compound A200, 3-(1′-(4-(2-hydroxypropan-2-yl)benzyl)-6-oxo-6,8-dihydro-2H,7H-spiro[furo[2,3-e]isoindole-3,4′-piperidin]-7-yl)piperidine-2,6-dione] | > 500 nM | < 40%
2 | CC(c1ccccc1)N1CCC2(CC1)COc1c2ccc2c1CN(C1CCC(=O)NC1=O)C2=O (stereo not drawn) [Compound A318, 3-(6-oxo-1′-(1-phenylethyl)-6,8-dihydro-2H,7H-spiro[furo [2,3-e]isoindole-3,4′-piperidin]-7-yl)piperidine-2,6-dione] | < 50 nM | 60 to 80%
3 | O=C1CCC(N2Cc3c(ccc4c3OCC43CCN(Cc4cncc5ccccc45)CC3)C2=O)C(=O)N1 (stereo not drawn) [Compound A43, 3-(1′-(isoquinolin-4-ylmethyl)-6-oxo-6,8-dihydro-2H,7H-spiro[furo[2,3-e]isoindole-3,4′-piperidin]-7-yl)piperidine-2,6-dione] | > 500 nM | 40 to 60%
4 | CC(=O)Nc1cccc(CN2CCC3(CC2)COc2c3ccc3c2CN(C2CCC(=O)NC2=O)C3=O)c1 (stereo not drawn) [Compound A176, N-(3-((7-(2,6-dioxopiperidin-3-yl)-6-oxo-7,8-dihydro-2H,6H-spiro[furo[2,3-e]isoindole-3,4′-piperidin]-1′-yl)methyl)phenyl) acetamide] | > 500 nM | 40 to 60%
5 | Cn1ccc2cccc(CN3CCC4(CC3)COc3c4ccc4c3CN(C3CCC(=O)NC3=O)C4=O)c21 (stereo not drawn) [Compound A74, 3-(1′-((1-methyl-1H-indol-7-yl)methyl)-6-oxo-6,8-dihydro-2H,7H-spiro[furo[2,3-e]isoindole-3,4′-piperidin]-7-yl)piperidine-2,6-dione] | 50 to 200 nM | 60 to 80%
6 | O=C1CC[C@H](N2Cc3c(ccc4c3OCC43CCN(Cc4cccc(C5CCOC5)c4)CC3)C2=O)C(=O)N1 (stereo partly drawn) [Compound A304, (3S)-3-(6-oxo-1′-(3-(tetrahydrofuran-3-yl)benzyl)-6,8-dihydro-2H,7H-spiro[furo[2,3-e]isoindole-3,4′-piperidin]-7-yl)piperidine-2,6-dione] | > 500 nM | 40 to 60%
7 | COCCn1ncc2cc(CN3CCC4(CC3)COc3c4ccc4c3CN(C3CCC(=O)NC3=O)C4=O)ccc21 (stereo not drawn) [Compound A342, 3-(1′-((1-(2-methoxyethyl)-1H-indazol-5-yl)methyl)-6-oxo-6,8-dihydro-2H,7H-spiro[furo[2,3-e]isoindole-3,4′-piperidin]-7-yl)piperidine-2,6-dione] | > 500 nM | < 40%
8 | O=C1CCC(N2Cc3c(ccc4c3OCC43CCN(Cc4cccc5ncccc45)CC3)C2=O)C(=O)N1 (stereo not drawn) [Compound A38, 3-(6-oxo-1′-(quinolin-5-ylmethyl)-6,8-dihydro-2H,7H-spiro[furo[2,3-e]isoindole-3,4′-piperidin]-7-yl)piperidine-2,6-dione] | 50 to 200 nM | 60 to 80%
9 | O=C1CCC(N2Cc3c(ccc4c3OCC43CCN(Cc4cnc5[nH]ccc5c4)CC3)C2=O)C(=O)N1 (stereo not drawn) [Compound A163, 3-(1′-((1H-pyrrolo[2,3-b]pyridin-5-yl)methyl)-6-oxo-6,8-dihydro-2H,7H-spiro[furo[2,3-e]isoindole-3,4′-piperidin]-7-yl)piperidine-2,6-dione] | < 50 nM | 60 to 80%
10 | O=C1CCC(N2Cc3c(ccc4c3OCCC43CCN(Cc4ccc(C(F)F)cc4)CC3)C2=O)C(=O)N1 (stereo not drawn) [Compound A9, 3-(1-(4-(difluoromethyl)benzyl)-7′-oxo-2′,3′,7′,9′-tetrahydro-8′H-spiro[piperidine-4,4′-pyrano[2,3-e]isoindol]-8′-yl)piperidine-2,6-dione] | > 500 nM | < 40%
11 | O=C1CCC(N2Cc3c(ccc4c3OCC43CCN(Cc4cccc5ccsc45)CC3)C2=O)C(=O)N1 (stereo not drawn) [Compound A189, 3-(1′-(benzo[b]thiophen-7-ylmethyl)-6-oxo-6,8-dihydro-2H,7H-spiro[furo[2,3-e]isoindole-3,4′-piperidin]-7-yl)piperidine-2,6-dione] | 50 to 200 nM | 60 to 80%
12 | COCCn1cc2ccc(CN3CCC4(CC3)COc3c4ccc4c3CN([C@H]3CCC(=O)NC3=O)C4=O)cc2n1 [Compound A287, (S)-3-(1′-((2-(2-methoxyethyl)-2H-indazol-6-yl)methyl)-6-oxo-6,8-dihydro-2H,7H-spiro[furo[2,3-e]isoindole-3,4′-piperidin]-7-yl)piperidine-2,6-dione] | < 50 nM | 60 to 80%
13 | O=C1CCC(N2Cc3c(ccc4c3OCC43CCN(Cc4cccc(Cl)c4)CC3)C2=O)C(=O)N1 (stereo not drawn) [Compound A216, 3-(1′-(3-chlorobenzyl)-6-oxo-6,8-dihydro-2H,7H-spiro[furo[2,3-e]isoindole-3,4′-piperidin]-7-yl)piperidine-2,6-dione] | 50 to 200 nM | 60 to 80%
14 | O=C1CCC(N2Cc3c(ccc4c3OCC43CCN(Cc4ccc5cccnc5c4)CC3)C2=O)C(=O)N1 (stereo not drawn) [Compound A64, 3-(6-oxo-1′-(quinolin-7-ylmethyl)-6,8-dihydro-2H,7H-spiro[furo[2,3-e]isoindole-3,4′-piperidin]-7-yl)piperidine-2,6-dione] | 50 to 200 nM | 60 to 80%
15 | O=C1CC[C@H](N2Cc3c(ccc4c3OCC43CCN(Cc4cccc(-c5cc[nH]n5)c4)CC3)C2=O)C(=O)N1 [Compound A290, (S)-3-(1′-(3-(1H-pyrazol-3-yl)benzyl)-6-oxo-6,8-dihydro-2H,7H-spiro[furo[2,3-e]isoindole-3,4′-piperidin]-7-yl)piperidine-2,6-dione] | < 50 nM | 60 to 80%
16 | O=C1CCC(N2Cc3c(ccc4c3OCC43CCN(Cc4ccc(F)cc4)CC3)C2=O)C(=O)N1 (stereo not drawn) [Compound A192, 3-(1′-(4-fluorobenzyl)-6-oxo-6,8-dihydro-2H,7H-spiro[furo[2,3-e]isoindole-3,4′-piperidin]-7-yl)piperidine-2,6-dione] | > 500 nM | 40 to 60%
17 | O=C1CC[C@H](N2Cc3c(ccc4c3OCC43CCN(Cc4cccc(-c5ccn(C(F)F)n5)c4)CC3)C2=O)C(=O)N1 [Compound A289, (S)-3-(1′-(3-(1-(difluoromethyl)-1H-pyrazol-3-yl)benzyl)-6-oxo-6,8-dihydro-2H,7H-spiro[furo[2,3-e]isoindole-3,4′-piperidin]-7-yl)piperidine-2,6-dione] | < 50 nM | 60 to 80%
18 | O=C1CCC(N2Cc3c(ccc4c3OCC43CCN(Cc4ccc5ncccc5c4)CC3)C2=O)C(=O)N1 (stereo not drawn) [Compound A46, 3-(6-oxo-1′-(quinolin-6-ylmethyl)-6,8-dihydro-2H,7H-spiro[furo[2,3-e]isoindole-3,4′-piperidin]-7-yl)piperidine-2,6-dione] | 200 to 500 nM | 40 to 60%
19 | O=C1CCC(N2Cc3c(ccc4c3OCC43CCN(Cc4cccc5cnccc45)CC3)C2=O)C(=O)N1 (stereo not drawn) [Compound A39, 3-(1′-(isoquinolin-5-ylmethyl)-6-oxo-6,8-dihydro-2H,7H-spiro[furo[2,3-e]isoindole-3,4′-piperidin]-7-yl)piperidine-2,6-dione] | < 50 nM | 60 to 80%
20 | O=C1CCC(N2Cc3c(ccc4c3OCC43CCN(Cc4cnn(CC5CC5)c4)CC3)C2=O)C(=O)N1 (stereo not drawn) [Compound A231, 3-(1′-((1-(cyclopropylmethyl)-1H-pyrazol-4-yl)methyl)-6-oxo-6,8-dihydro-2H,7H-spiro[furo[2,3-e]isoindole-3,4′-piperidin]-7-yl)piperidine-2,6-dione] | 200 to 500 nM | 60 to 80%
21 | O=C1CCC(N2Cc3c(ccc4c3OCC43CCN(Cc4cnn(CC5CCOCC5)c4)CC3)C2=O)C(=O)N1 (stereo not drawn) [Compound A233, 3-(6-oxo-1′-((1-((tetrahydro-2H-pyran-4-yl)methyl)-1H-pyrazol-4-yl)methyl)-6,8-dihydro-2H,7H-spiro[furo[2,3-e]isoindole-3,4′-piperidin]-7-yl)piperidine-2,6-dione] | 200 to 500 nM | 60 to 80%
22 | Cn1ccc(-c2cccc(CN3CCC4(CC3)COc3c4ccc4c3CN([C@H]3CCC(=O)NC3=O)C4=O)c2)n1 [Compound A267, (S)-3-(1′-(3-(1-methyl-1H-pyrazol-3-yl)benzyl)-6-oxo-6,8-dihydro-2H,7H-spiro[furo[2,3-e]isoindole-3,4′-piperidin]-7-yl)piperidine-2,6-dione] | < 50 nM | 60 to 80%
23 | O=C1CCC(N2Cc3c(ccc4c3OCC43CCN(Cc4cccc(OCc5ccccn5)c4)CC3)C2=O)C(=O)N1 (stereo not drawn) [Compound A135, 3-(6-oxo-1′-(3-(pyridin-2-ylmethoxy)benzyl)-6,8-dihydro-2H,7H-spiro[furo[2,3-e]isoindole-3,4′-piperidin]-7-yl)piperidine-2,6-dione] | < 50 nM | 60 to 80%
24 | COc1cccc(CN2CCC3(CC2)COc2c3ccc3c2CN(C2CCC(=O)NC2=O)C3=O)c1 (stereo not drawn) [Compound A212, 3-(1′-(3-methoxybenzyl)-6-oxo-6,8-dihydro-2H,7H-spiro[furo[2,3-e]isoindole-3,4′-piperidin]-7-yl)piperidine-2,6-dione] | > 500 nM | 40 to 60%
25 | O=C1CCC(N2Cc3c(ccc4c3OCC43CCN(Cc4cccc(OC(F)F)c4)CC3)C2=O)C(=O)N1 (stereo not drawn) [Compound A90, 3-(1′-(3-(difluoromethoxy)benzyl)-6-oxo-6,8-dihydro-2H,7H-spiro[furo[2,3-e]isoindole-3,4′-piperidin]-7-yl)piperidine-2,6-dione] | > 500 nM | < 40%
26 | O=C1CCC(N2Cc3c(ccc4c3OCC43CCN(Cc4ccnc(Cl)c4)CC3)C2=O)C(=O)N1 (stereo not drawn) [Compound A250, 3-(1′-((2-chloropyridin-4-yl)methyl)-6-oxo-6,8-dihydro-2H,7H-spiro[furo[2,3-e]isoindole-3,4′-piperidin]-7-yl)piperidine-2,6-dione] | > 500 nM | < 40%
27 | Cn1cc(CN2CCC3(CC2)COc2c3ccc3c2CN(C2CCC(=O)NC2=O)C3=O)cn1 (stereo not drawn) [Compound A228, 3-(1′-((1-methyl-1H-pyrazol-4-yl)methyl)-6-oxo-6,8-dihydro-2H,7H-spiro[furo[2,3-e]isoindole-3,4′-piperidin]-7-yl)piperidine-2,6-dione] | > 500 nM | < 40%
